In patent US10479780B2, “Aminopyrazole derivatives” (Chugai Seiyaku Kabushiki Kaisha, priority 2015, dated 2019) one finds IC50 data, which are given here for 20 molecules.

Like-named read-outs stand apart in the source and are kept apart here.

Assay type in all cases: biochemical
One test concerns the target T1, human Yes1 enzyme (Homo sapiens, UniProt P07947).
T1 construct: made in house
As to the kind of experiment: Yes1 enzyme inhibitory activity (time-resolved fluorometry, biotinylated peptide phosphorylation). The conditions noted are these: read-out: YES_IC50. A digest of the protocol:
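Inhibition was expressed against a compound-free control to give IC50, using TR-FRET read-out (Eu-cryptate anti-pTyr antibody, streptavidin-XL665).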

The next test addresses T2, human Lck enzyme (Homo sapiens, UniProt P06239).
T2 construct: purchased Carna Biosciences, Inc. 08-170
As to the kind of experiment: Lck enzyme inhibitory activity (time-resolved fluorometry, biotinylated peptide phosphorylation). The conditions noted are these: read-out: LCK_IC50. Summed up: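 Readout pairs a europium cryptate-labelled anti-phosphotyrosine antibody with XL665-streptavidin, measured by time-resolved fluorescence. IC50 derived from percent inhibition against untreated controls.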

The next test has as its target T3, human Src enzyme (Homo sapiens, UniProt P12931).
T3 construct: purchased Carna Biosciences, Inc. 08-173
As to the kind of experiment: Src enzyme inhibitory activity (time-resolved fluorometry, biotinylated peptide phosphorylation). The conditions noted are these: read-out: SRC_IC50. Summed up:
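Compounds were tested for blocking tyrosine phosphorylation of a biotinylated peptide substrate by recombinant human Src. Phosphorylated product was quantified by time-resolved fluorometry using europium cryptate and XL665 conjugates, and IC50 was calculated against the compound-free control.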

[1] abbreviates: biotinylated peptide phosphorylation.

T1 sequence (P07947 whole entry): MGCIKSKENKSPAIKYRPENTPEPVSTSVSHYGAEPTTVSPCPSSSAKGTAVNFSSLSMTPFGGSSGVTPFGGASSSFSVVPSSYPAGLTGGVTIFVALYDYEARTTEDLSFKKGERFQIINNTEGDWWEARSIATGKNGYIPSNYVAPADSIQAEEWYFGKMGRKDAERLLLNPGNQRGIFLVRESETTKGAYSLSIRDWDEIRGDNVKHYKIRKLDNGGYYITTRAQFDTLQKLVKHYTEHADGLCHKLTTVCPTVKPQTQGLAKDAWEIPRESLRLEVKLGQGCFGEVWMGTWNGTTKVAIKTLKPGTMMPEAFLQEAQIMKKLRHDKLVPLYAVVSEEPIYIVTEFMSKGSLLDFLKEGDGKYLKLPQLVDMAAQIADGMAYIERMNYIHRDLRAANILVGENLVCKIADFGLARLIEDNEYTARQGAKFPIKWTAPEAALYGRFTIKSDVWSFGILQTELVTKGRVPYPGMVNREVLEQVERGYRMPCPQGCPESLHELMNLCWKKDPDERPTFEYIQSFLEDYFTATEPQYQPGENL
T2 sequence (P06239 whole entry): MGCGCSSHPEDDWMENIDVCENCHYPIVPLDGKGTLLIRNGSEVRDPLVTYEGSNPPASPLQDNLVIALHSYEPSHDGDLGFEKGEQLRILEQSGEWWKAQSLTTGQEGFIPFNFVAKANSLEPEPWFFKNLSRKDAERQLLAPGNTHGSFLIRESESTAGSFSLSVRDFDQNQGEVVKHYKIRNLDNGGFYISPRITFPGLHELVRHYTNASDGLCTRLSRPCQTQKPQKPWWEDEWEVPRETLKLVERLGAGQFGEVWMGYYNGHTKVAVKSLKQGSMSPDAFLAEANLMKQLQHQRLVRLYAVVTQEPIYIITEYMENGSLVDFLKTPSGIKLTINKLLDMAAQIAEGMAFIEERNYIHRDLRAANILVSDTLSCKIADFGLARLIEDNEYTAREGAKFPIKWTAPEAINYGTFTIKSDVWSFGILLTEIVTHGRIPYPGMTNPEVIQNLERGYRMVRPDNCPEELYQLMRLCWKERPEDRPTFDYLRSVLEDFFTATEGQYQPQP
T3 sequence (P12931 whole entry): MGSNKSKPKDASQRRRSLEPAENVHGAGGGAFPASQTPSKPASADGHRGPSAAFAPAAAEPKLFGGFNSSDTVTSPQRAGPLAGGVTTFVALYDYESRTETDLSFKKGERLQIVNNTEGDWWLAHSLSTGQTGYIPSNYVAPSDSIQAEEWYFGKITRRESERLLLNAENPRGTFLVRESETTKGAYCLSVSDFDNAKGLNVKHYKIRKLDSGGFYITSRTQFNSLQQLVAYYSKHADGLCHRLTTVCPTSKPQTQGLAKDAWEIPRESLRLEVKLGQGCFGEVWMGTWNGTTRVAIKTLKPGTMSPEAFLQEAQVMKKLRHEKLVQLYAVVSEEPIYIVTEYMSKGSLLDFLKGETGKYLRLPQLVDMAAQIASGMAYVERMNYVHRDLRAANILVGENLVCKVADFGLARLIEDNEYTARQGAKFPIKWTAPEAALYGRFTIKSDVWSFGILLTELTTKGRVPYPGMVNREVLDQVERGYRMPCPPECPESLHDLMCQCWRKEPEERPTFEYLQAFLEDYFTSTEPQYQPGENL

In the case of `Cc1cc(Oc2ccccc2F)cc(F)c1-n1ncc(C(=O)c2cc3cc(Cl)c(NS(C)(=O)=O)cc3[nH]2)c1N` [Example 4-2-079, N-[2-[5-amino-1-[2-fluoro-4-(2-fluorophenoxy)-6-methylphenyl]pyrazole-4-carbonyl]-5-chloro-1H-indol-6-yl]methanesulfonamide], the results for the IC50 on human Yes1 enzyme (setting [1]), at human Lck enzyme (setting [1]) and at human Src enzyme (setting [1]) were 2.6 nM, 24 nM and 66 nM, respectively.

With `Cc1cc(-n2ncc(C(=O)c3cc4cc(OC(F)F)c(N5CCOCC5)cc4[nH]3)c2N)ccc1Oc1ccccc1F` [Example 5-1-173, [5-amino-1-[4-(2-fluorophenoxy)-3-methylphenyl]pyrazol-4-yl]-[5-(difluoromethoxy)-6-morpholin-4-yl-1H-indol-2-yl]methanone], the figures for the IC50 at human Yes1 enzyme, on human Lck enzyme and at human Src enzyme were 2.6 nM, 100 nM and 340 nM, respectively.

Turning to `Cc1cc(Oc2c(F)cccc2F)ncc1-n1ncc(C(=O)c2cc3cc(F)c(NS(C)(=O)=O)cc3[nH]2)c1N` [Example 4-2-031, N-[2-[5-amino-1-[6-(2,6-difluorophenoxy)-4-methylpyridin-3-yl]pyrazole-4-carbonyl]-5-fluoro-1H-indol-6-yl]methanesulfonamide], the IC50 at human Yes1 enzyme (setting [1]) was determined as 0.69 nM; on human Lck enzyme (setting [1]), 4.3 nM; at human Src enzyme (setting [1]) it was 37 nM.

On to `Cc1cc(Oc2ccccc2F)ncc1-n1ncc(C(=O)c2cc3cc(OC(F)F)c(N4CCN(S(C)(=O)=O)CC4)cc3[nH]2)c1N` [Example 4-23-004, [5-amino-1-[6-(2-fluorophenoxy)-4-methylpyridin-3-yl]pyrazol-4-yl]-[5-(difluoromethoxy)-6-(4-methylsulfonylpiperazin-1-yl)-1H-indol-2-yl]methanone], for which the figures for the IC50 on human Yes1 enzyme (setting [1]), at human Lck enzyme (setting [1]) and on human Src enzyme (setting [1]) were 5.5 nM, 18 nM and 48 nM, respectively.

With `CC(C)N1CCC(c2cc3cc(C(=O)c4cnn(-c5ccc(Oc6cccc(F)c6F)cc5F)c4N)[nH]c3cc2F)CC1` [Example 4-2-007, [5-amino-1-[4-(2,3-difluorophenoxy)-2-fluorophenyl]pyrazol-4-yl]-[6-fluoro-5-(1-propan-2-ylpiperidin-4-yl)-1H-indol-2-yl]methanone], the IC50 at human Yes1 enzyme (setting [1]) is 0.91 nM; at human Lck enzyme (setting [1]), 3.6 nM; on human Src enzyme (setting [1]), 45 nM.

Take `Cc1cc(Oc2c(F)cccc2F)ncc1-n1ncc(C(=O)c2cc3cc(C(C)C)c(NS(=O)(=O)C4CCCCC4)cc3[nH]2)c1N` [Example 5-1-304, N-[2-[5-amino-1-[6-(2,6-difluorophenoxy)-4-methylpyridin-3-yl]pyrazole-4-carbonyl]-5-propan-2-yl-1H-indol-6-yl] cyclohexanesulfonamide]: the values for the IC50 on human Yes1 enzyme, on human Lck enzyme and at human Src enzyme were 32 nM, 400 nM and 1300 nM, respectively.

For the molecule `Cc1cc(Oc2ccccc2F)ccc1-n1ncc(C(=O)c2cc3cc(F)c(N4C(=O)[C@@H]5C[C@@H](O)CN5C4=O)cc3[nH]2)c1N` [Example 5-1-449, (6R,7aS)-2-[2-[5-amino-1-[4-(2-fluorophenoxy)-2-methylphenyl]pyrazole-4-carbonyl]-5-fluoro-1H-indol-6-yl]-6-hydroxy-5,6,7,7a-tetrahydropyrrolo[1,2-c]imidazole-1,3-dione], the IC50 is 0.66 nM at human Yes1 enzyme (setting [1]), 3.3 nM at human Lck enzyme (setting [1]) and 13 nM at human Src enzyme (setting [1]).

In the case of `Nc1c(C(=O)c2cc3cc(F)c(NS(=O)(=O)CCCF)cc3[nH]2)cnn1-c1ccc(Oc2ncccc2Cl)cc1Cl` [Example 5-1-037, N-[2-[5-amino-1-[2-chloro-4-(3-chloropyridin-2-yl)oxyphenyl]pyrazole-4-carbonyl]-5-fluoro-1H-indol-6-yl]-3-fluoropropane-1-sulfonamide], the IC50 is 0.91 nM on human Yes1 enzyme, 17 nM on human Lck enzyme and 45 nM on human Src enzyme.

With `Cc1cc2cc(C(=O)c3cnn(-c4ccc(Oc5ccccc5F)cc4C)c3N)[nH]c2cc1NS(=O)(=O)c1cccc(C#N)n1` [Example 5-1-535, N-[2-[5-amino-1-[4-(2-fluorophenoxy)-2-methylphenyl]pyrazole-4-carbonyl]-5-methyl-1H-indol-6-yl]-6-cyanopyridine-2-sulfonamide], the IC50 on human Yes1 enzyme (setting [1]) was found to be 4.1 nM; at human Lck enzyme (setting [1]), 78 nM; at human Src enzyme (setting [1]) it was 390 nM.

Regarding `Cc1cc2cc(C(=O)c3cnn(-c4cnc(Oc5ccccc5F)cc4C)c3N)[nH]c2cc1NS(=O)(=O)CCCF` [Example 4-2-072, N-[2-[5-amino-1-[6-(2-fluorophenoxy)-4-methylpyridin-3-yl]pyrazole-4-carbonyl]-5-methyl-1H-indol-6-yl]-3-fluoropropane-1-sulfonamide], the IC50 stood at 1.8 nM on human Yes1 enzyme (setting [1]), 20 nM at human Lck enzyme (setting [1]) and 88 nM at human Src enzyme (setting [1]).

On to `Cc1cc(Oc2ccccc2F)ccc1-n1ncc(C(=O)c2cc3cc(NS(C)(=O)=O)c(F)cc3[nH]2)c1N` [Example 4-2-097, N-[2-[5-amino-1-[4-(2-fluorophenoxy)-2-methylphenyl]pyrazole-4-carbonyl]-6-fluoro-1H-indol-5-yl]methanesulfonamide], for which the IC50 on human Yes1 enzyme (setting [1]) turned out to be 0.28 nM; on human Lck enzyme (setting [1]), 1.8 nM; on human Src enzyme (setting [1]), 8.1 nM.

Take `Cc1cc2cc(C(=O)c3cnn(-c4cnc(Oc5ccccc5F)cc4C)c3N)[nH]c2cc1NS(=O)(=O)c1csc2ccccc12` [Example 5-1-467, N-[2-[5-amino-1-[6-(2-fluorophenoxy)-4-methylpyridin-3-yl]pyrazole-4-carbonyl]-5-methyl-1H-indol-6-yl]-1-benzothiophene-3-sulfonamide]: the results for the IC50 at human Yes1 enzyme (setting [1]), on human Lck enzyme (setting [1]) and at human Src enzyme (setting [1]) were 24 nM, 370 nM and 3800 nM, respectively.

For the molecule `Cc1cc2cc(C(=O)c3cnn(-c4c(C)cc(Oc5cc(F)ccc5F)cc4F)c3N)[nH]c2cc1NS(C)(=O)=O` [Example 4-2-057, N-[2-[5-amino-1-[4-(2,5-difluorophenoxy)-2-fluoro-6-methylphenyl]pyrazole-4-carbonyl]-5-methyl-1H-indol-6-yl]methanesulfonamide], the IC50 came to 4.3 nM on human Yes1 enzyme (setting [1]), 27 nM at human Lck enzyme (setting [1]) and 140 nM on human Src enzyme (setting [1]).

Consider `Cc1cc(-n2ncc(C(=O)c3cc4cc(OC5CCN(C(C)C)CC5)c(N5CCN(S(C)(=O)=O)CC5)cc4[nH]3)c2N)ccc1Oc1ccccc1F` [Example 5-1-176, [5-amino-1-[4-(2-fluorophenoxy)-3-methylphenyl]pyrazol-4-yl]-[6-(4-methylsulfonylpiperazin-1-yl)-5-(1-propan-2-ylpiperidin-4-yl)oxy-1H-indol-2-yl]methanone], for which the IC50 on human Yes1 enzyme came to 1 nM; on human Lck enzyme, 11 nM; on human Src enzyme it was 79 nM.

In the case of `Cc1cc(Oc2c(F)cccc2F)ncc1-n1ncc(C(=O)c2cc3cc(OCC(F)F)c(NC4CN(S(C)(=O)=O)C4)cc3[nH]2)c1N` [Example 4-23-022, {5-amino-1-[6-(2,6-difluorophenoxy)-4-methylpyridin-3-yl]pyrazol-4-yl}-[5-(2,2-difluoroethoxy)-6-[(1-methylsulfonylazetidin-3-yl)amino]-1H-indol-2-yl]methanone], the IC50 at human Yes1 enzyme (setting [1]) is 1.3 nM; on human Lck enzyme (setting [1]), 8 nM; on human Src enzyme (setting [1]), 24 nM.

Take `Cc1cc(Oc2ccccc2F)ncc1-n1ncc(C(=O)c2cc3cc(OC(F)F)c(N4CCC(N5CCOCC5)CC4)cc3[nH]2)c1N` [Example 4-25-030, [5-amino-1-[6-(2-fluorophenoxy)-4-methylpyridin-3-yl]pyrazol-4-yl]-[5-(difluoromethoxy)-6-(4-morpholin-4-ylpiperidin-1-yl)-1H-indol-2-yl]methanone]: the IC50 turned out to be 2.6 nM at human Yes1 enzyme (setting [1]), 9.1 nM on human Lck enzyme (setting [1]) and 38 nM at human Src enzyme (setting [1]).

`Cc1cc2cc(C(=O)c3cnn(-c4cnc(Oc5ccccc5Cl)cc4C)c3N)[nH]c2cc1N1CCCS1(=O)=O` [Example 4-2-117, [5-amino-1-[6-(2-chlorophenoxy)-4-methylpyridin-3-yl]pyrazol-4-yl]-[6-(1,1-dioxo-1,2-thiazolidin-2-yl)-5-methyl-1H-indol-2-yl]methanone]: the figures for the IC50 at human Yes1 enzyme (setting [1]), on human Lck enzyme (setting [1]) and on human Src enzyme (setting [1]) were 0.6 nM, 4.8 nM and 21 nM, respectively.

As to `Cc1cc(Oc2ccccc2F)ccc1-n1ncc(C(=O)c2cc3cc(F)c(NS(=O)(=O)c4cccnc4)cc3[nH]2)c1N` [Example 5-1-489, N-[2-[5-amino-1-[4-(2-fluorophenoxy)-2-methylphenyl]pyrazole-4-carbonyl]-5-fluoro-1H-indol-6-yl]pyridine-3-sulfonamide], the IC50 at human Yes1 enzyme (setting [1]) was found to be 1.9 nM; at human Lck enzyme (setting [1]) it was 49 nM; at human Src enzyme (setting [1]), 190 nM.

Turning to `Cc1cc(Oc2c(F)cccc2F)ncc1-n1ncc(C(=O)c2cc3cc(OCC(F)F)c(NC4COC4)cc3[nH]2)c1N` [Example 4-23-008, {5-amino-1-[6-(2,6-difluorophenoxy)-4-methylpyridin-3-yl]pyrazol-4-yl}-[5-(2,2-difluoroethoxy)-6-(oxetan-3-ylamino)-1H-indol-2-yl]methanone], the IC50 on human Yes1 enzyme (setting [1]) came to 3.3 nM; on human Lck enzyme (setting [1]), 4.6 nM; at human Src enzyme (setting [1]) it was 23 nM.

For `Cc1cc(Oc2c(F)cccc2F)ncc1-n1ncc(C(=O)c2cc3cc(F)c(NS(=O)(=O)C4CC4)cc3[nH]2)c1N` [Example 4-2-044, N-[2-[5-amino-1-[6-(2,6-difluorophenoxy)-4-methylpyridin-3-yl]pyrazole-4-carbonyl]-5-fluoro-1H-indol-6-yl]cyclopropanesulfonamide], the IC50 at human Yes1 enzyme (setting [1]) was found to be 7 nM; on human Lck enzyme (setting [1]) it was 32 nM; on human Src enzyme (setting [1]), 160 nM.
